These results are taken from patent US20090275529A1, “METHOD FOR IMPROVING CARDIOVASCULAR RISK PROFILE OF COX INHIBITORS” (priority 2008, published 2009).

Data set [1] relates to cholesterol 27-OHase mRNA in THP-1 cells. Briefly: 27-OHase mRNA by real-time PCR (QRT-PCR) in THP-1 monocytes/macrophages. The settings on record: for effect on 27-OHase message: THP-1 monocytes/macrophages; for 27-OHase mRNA, % of control: THP-1 monocytes, MTX 5 μM, 18 hr, untreated = 100%, n=3; for increase in 27-OHase message: THP-1 cells. In general terms: Quantitative PCR measures a nucleic acid by following its amplification.
Protocol: THP-1 cells: When THP-1 cells had reached 10^6 cells/ml, media was aspirated and cells were rinsed twice with Dulbecco's Phosphate Buffered Saline (DPBS) without calcium and magnesium. The monocytes were then incubated for 24-48 hours in six well plates, (37° C., 5% CO2) under the following conditions: a) RPMI control; b) RPMI containing 5 mM MTX; c) RPMI containing NS-398 (50 μM); d) RPMI containing NS-398 (50 μM) and MTX (increasing doses of 0.1 μM, 0.5 μM and 5 μM); e) RPMI containing IFN-γ (500 U/ml); f) RPMI containing IFN-γ (500 U/ml) and 5 μM MTX.
TUP-1 macrophages were exposed to the following conditions: a) RPMI control; b) RPMI containing ZM-241385 (10 μM); c) RPMI containing MTX (5 μM); d) RPMI containing IFN-γ (500 U/ml); e) RPMI containing IFN-γ (500 U/ml) and 5 μM MTX; f) RPMI containing ZM-241385 (10 μM) and MTX (5 μM); g) RPMI containing IFN-γ (500 U/ml), ZM-241385 (10 μM) and MTX (5 μM); h) RPMI containing NS-398 (50 μM), ZM-241385 (10 μM) and MTX (5 μM).
Other experimental conditions of TUP-1 and PBMC included the following parameters and conditions: when THP-1 monocytes had reached 10^6 cells/ml, media was aspirated and cells were rinsed twice with Dulbecco's Phosphate Buffered Saline (DPBS) without calcium and magnesium.
RNA isolation and quantitation: RNA was isolated using 1 ml Trizol reagent per 10^6 cells and dissolved in nuclease-free water. The quantity of total RNA from each condition was measured by absorption at 260 and 280 wavelengths using quartz cuvettes by ultraviolet spectrophotometry (Hitachi U2010 spectrophotometer).
RT-PCR analysis of 27-OHase: 27-OHase and ABCA1 mRNA were quantitated by real-time PCR. cDNA was copied from 5 μg of total RNA using M-MLV reverse transcriptase primed with oligo dT. Equal amounts of cDNA were taken from each RT reaction mixture for PCR amplification using cholesterol 27-OHase-specific primers or ABCA1 specific primers as well as glyceraldehyde-3-phosphate dehydrogenase (GAPDH) control primers. The cholesterol 27-OHase-specific primers span a 311 base-pair sequence encompassing nucleotides 491-802 of the human cholesterol 27-OHase cDNA (24). ABCA1 primers yield a 234 BP amplified fragment. Real-time PCR analysis was performed using the SYBR Green PCR Reagents Kit (Applied Biosystems) with a Stratagene MX3005P QPCR System.
PCR was performed using techniques as follows. Each PCR reaction contained 2.5 μl of the 10 × fluorescent green buffer, 3 μl of 25 mM MgCl2, 2 μl dNTP mix (2500 μM dCTP, 2500 μM dGTP, 2500 μM dATP, and 5000 μM dUTP), 0.15 μl polymerase (5 U/μl; AmpliTaq Gold; Applied Biosystems), 0.25 μl uracil-N-glycosylase (1 U/μlUNG; AmpErase; Applied Biosystems), 0.5 μl of the forward and reverse primers (10 μM concentration), 4 μl cDNA, and water to a final volume of 25 μl. The thermal cycling parameters were as follows: 5 minutes at 95° C. to activate the polymerase (AmpliTaq Gold; Applied Biosystems), followed by 45 cycles of 30 seconds at 95° C. and 45 seconds at 58° C. then 45 seconds at 72° C. Each reaction was done in triplicate.
The amounts of PCR products were estimated, using software provided by the manufacturer (Stratagene). After completion of PCR cycles, the reactions were heat denatured over a 35° C. temperature gradient from 60° C. to 95° C. To correct for differences in cDNA load among samples, the target PCRs were normalized to a reference PCR involving the endogenous housekeeping genes glyceraldehyde-3-phosphate dehydrogenase (GAPDH) and β-actin. Nontemplate controls were included for each primer pair to check for significant levels of any contaminants. Fluorescence emission spectra were monitored and analyzed.

A further data set relates to THP-1 macrophages. As to the kind of experiment: Foam cell formation in acetylated LDL-loaded THP-1 macrophages (oil red O). The data set is classed as cell-based, human. As for the experimental part: THP-1 human monocytes (1×10^6 cells/ml) in 12 well plates were treated with phorbol dibutyrate, 300 nM (Sigma) for 48 hr at 37° C. to facilitate differentiation into macrophages. The differentiated macrophages were washed three times with PBS, then incubated alone or in the presence of 10 μM NS-398 (37° C., 5% CO2, 18 hours). Cells were cholesterol-loaded with acetylated LDL (50 μg/ml) and further incubated in RPMI (37° C., 5% CO2) for 48 hours. Studies were performed in triplicate.
Immediately following incubation, media was aspirated and cells were fixed in the same 12 well plates used for incubation, with 4% paraformaldehyde in water, for 2-4 minutes. Cells were stained with 0.2% Oil-Red-O in methanol for 1-3 min. Cells were observed via light microscope (Axiovert 25-Zeiss) with 100× magnification and then photographed using a Kodak DC 290 Zoom Digital Camera. The number of foam cells formed in each condition were calculated manually and presented as percentage foam cell formation.
(§1) Media was aspirated and cells were rinsed 3 times with Dulbecco's Phosphate Buffered Saline (PBS) without Ca++ and Mg++. […] THP-1 macrophages were cholesterol-loaded with 50 μg/ml acetylated LDL and incubated an additional 48 h prior to oil red O staining.
Following incubation, media was aspirated and cells were fixed with 4% paraformaldehyde in water, for 2-4 min. Cells were stained with 0.4% trypan blue for 1-3 min, washed in PBS, and then stained with 0.2% oil-Red-O in methanol for 1-3 min. Observation and photography of cells was performed respectively via light microscope (NIKON Eclipse TE300) with 40× magnification and SONY Progressive 3CCD color video camera. The number of foam cells formed in each condition were calculated manually and presented as percentage foam cell formation.

Data set [2] has as its system ABCA1 protein in THP-1 cells. Briefly: ABCA1 protein by Western blot in THP-1 cells. The data set is classed as cell-based, human. The settings on record: 50 μM. As to the method:
ABCA1 Detection: For ABCA1 detection, macrophage cell lysates were electrophoresed for 1.5 hr at 100V (10% polyacrylamide gel), then transferred to a nitrocellulose membrane. The membrane was blocked for 4 hours at 4° C. in blocking solution then incubated overnight at 4° C. in a 1:200 dilution of rabbit anti-ABCA1antibody (Santa Cruz Biotechnology). The following day, the membrane was washed 5 times in TTBS for 5 mins per wash then incubated at room temperature in a 1:5000 dilution of ECL donkey anti-rabbit IgG Horseradish peroxidase-linked species-specific whole antibody. Development proceeded as described above for the 27-OHase antibody.
as §1
Western Blots: Total cell lysate protein samples (10 μg/lane) were boiled for 5 min, loaded onto a 7.5% polyacrylamide gel, electrophoresed for 1.5 hr at 100V then transferred to a nitrocellulose membrane in a semi-dry transblot apparatus for 1 hr at 100V. For ABCA1 detection, the primary antibody was a rabbit anti-human ABCA1 antibody (1:2000 dilution, Santa Cruz Biotechnology). […]
In general terms: In western blotting, separated proteins are transferred to a membrane and probed.

In data set [3] the test system is 27-OHase in peripheral blood monocytes. As to the kind of experiment: 27-OHase in healthy monocytes isolated from peripheral blood (PBMC). The data set is classed as cell-based, human. The settings on record: MTX 5 μM, 18 h. As to the method: PBMC (peripheral blood mononuclear cell) isolation: Blood from healthy donors was collected in EDTA treated tubes, pooled and kept at 4° C. The pooled blood was adjusted to a density of 1.120 g/ml with the addition of OptiPrep Density Gradient Media (Sigma) according to the manufacturer's instructions. The blood was then overlaid with a 1.074 g/ml density solution composed of complete RPMI containing 10% FBS and OptiPrep media. A layer of complete RPMI containing 10% FBS was then overlaid on top to prevent monocytes from sticking to the plastic tube. The blood was centrifuged at 750 g for 30 minutes at 4° C. After centrifugation, the monocyte interphase was collected from between the 1.074 g/ml and RPMI layer. The collected cells were diluted with 2 volumes of complete RPMI and harvested by centrifugation. The pellet was re-suspended in complete RPMI. The monocytes were counted by hemocytometer and plated at a density of 2×10^6 cells/well in a 6-well plate.
PBMC: PBMC were incubated for 18 h in RPMI with 10% FBS with and without the addition of MTX at a concentration of 5 μM. Cells were collected and RNA isolated.

The subject of data set [4] is ABCA1 mRNA in THP-1 cells. Briefly: ABCA1 mRNA by real-time PCR in THP-1 cells. To be noted: for effect on ABCA1 message: THP-1 monocytes/macrophages. The class given is cell-based, human.
The subject of data set [5] is cholesterol 27-OHase protein in THP-1 cells. Briefly: 27-OHase protein by Western immunoblot in THP-1 monocytes. The data set is classed as cell-based, human. The settings on record: NS-398 50 μM. As for the experimental part:
Western Blots: Total cell lysates were prepared for Western immunoblotting using RIPA lysis buffer (98% PBS, 1% Igepal CA-630, 0.5% sodium deoxycholate, 0.1% sodium dodecyl sulfate [SDS]). 100 μl of RIPA lysis buffer and 10 μl of protease inhibitor cocktail (Sigma) were added to the cell pellet from each condition and incubated on ice for 35 minutes with vortexing every 5 min. Supernatants were collected after centrifuging at 10,000 g at 4° C. for 10 minutes using an Eppendorf 5415C centrifuge. The quantity of protein in each supernatant was measured by absorption at 560 nm using a Hitachi U2010 spectrophotometer.
Total cell lysate was used for Western blots. Protein samples ([…]) were boiled for 5 minutes, loaded onto a 10% polyacrylamide gel, electrophoresed for 1.5 hr at 100V then transferred to a nitrocellulose membrane in a semi-dry transblot apparatus for 1 hour at 100V. […] The five washes in TTBS were repeated, then the immunoreactive protein was detected using ECL western blotting detection reagent (Amersham Biosciences, Cat No RPN2106) and film development in SRX-101A (Konica Minolta).
As a control, on the same transferred membrane, beta-actin was detected using mouse anti-beta-actin (diluted in 1:1000, from abCam, product Code: ab6276) and ECL sheep anti-mouse-IgG Horseradish peroxidase-linked species-specific whole antibody (diluted in 1:2000, from Amersham Biosciences, product Code NA931) and all other similar steps as above.
Total cell lysate was isolated for Western immunoblotting using RIPA lysis buffer (98% PBS, 1% Igepal CA-630, 0.5% sodium deoxycholate, 0.1% SDS). […] The quantity of protein in each supernatant was measured by absorption at 560 nm using a Hitachi U2010 spectrophotometer.
Cultured TUP-1 monocytic cells were untreated or exposed to NS-398 (50 μM, 18 hr) then untreated or exposed to increasing doses of MTX for 24 hr. Total cell protein was isolated and 27-OHase detected with specific rabbit polyclonal anti-human 27-OHase antibody. […]

The conditions of data set [6]: rats, IV dose 0.3 mg/kg; cited from earlier work.
In data set [7] the test system is 27-OHase mRNA in Balb/C murine macrophages. Briefly: 27-OHase mRNA in Balb/C murine macrophages. The class given is cell-based. The settings on record: 10^−5M, 3 hours, 37° C., n=3 per group. The source says:
A number of different highly receptor-specific agonists and antagonists of adenosine receptors have been developed that either mimic or block the effects of adenosine. […] Based on the upregulation of 27-OHase in murine cells upon exposure to CGS-21680, the same effect was established in human monocytoid cells. In THP-1 cells, ABCA1 mRNA increased in concert with 27-OHase.

Where [8] appears, read: THP-1 macrophages, acetylated LDL.
[9] abbreviates: acetylated LDL-treated THP-1 macrophages, MTX series, control 39.3±5.0%, n=3.
The mark [10] stands for this setting: vs NS-398 alone, NS-398 50 μM, CGS-21680 10 μM, 18 hrs.

Values joined by “and” are separate entries in the source; they are usually repeats but may differ in a detail not shown here. Identical values can stand only once. “Also recorded” adds a separate entry of the source.

As to “IFN-γ: recombinant human IFN-γ, atherosclerosis-promoting cytokine (R&D Systems)”, the “effect on 27-OHase message” value in data set [1] was “decreasing 27-OHase and ABCA1 message and protein expression”. The “effect on foam cell formation” value with THP-1 macrophages (setting [8]) was “formed foam cells more rapidly and in greater proportion than untreated control cells”. The same compound returned a foam cells in the data set with THP-1 macrophages (setting [9]) of 71.0±5.0%.

In the case of `Cc1ccc(-c2cc(C(F)(F)F)nn2-c2ccc(S(N)(=O)=O)cc2)cc1` [Celecoxib, celecoxib], the “decrease in ABCA1 protein expression vs. control” value in data set [2] was 25.6%±1.3. Further, the foam cells in the data set on THP-1 macrophages (50 μM, acetylated LDL loading, control 39.1%±5.4) is reported as 95.0%±0.7.

With `CN(Cc1cnc2nc(N)nc(N)c2n1)c1ccc(C(=O)N[C@@H](CCC(=O)O)C(=O)O)cc1` [MTX, methotrexate], in data set [3], the “effect on 27-OHase in peripheral blood monocytes” value is recorded as “increases 27-OHase”. Also, the “effect on ABCA1 message” value in data set [4] is given as “effective in blocking COX-2 inhibitor-mediated downregulation of ABCA1 message”. Also, the “effect on 27-OHase message” value in data set [1] is on record as “completely blocked NS-398-induced downregulation of 27-OHase message”. Also, in data set [1] (NS-398 50 μM, CGS-21680 10 μM), the “27-OHase mRNA, % of control” value amounted to 113.9±6.4%. Moreover, the “effect on 27-OHase protein” value in data set [5] is recorded as “corrected with increasing concentrations of MTX”.

`Nc1nc(NCCc2ccc(O)cc2)nc2nc(-c3ccco3)nn12` [ZM-241385]: the “reversal by A2A antagonist of agonist-induced rise in 27-OHase (and ABCA1) message” value in data set [1] (THP-1, ZM-241385 with ATL313 or MRE-0094) is “this is reversed by ZM-241385; also recorded: reversed the effect of MRE-0094 on both these messages”. Also, the “effect on foam cell formation” value in the data set with THP-1 macrophages (setting [8]) is given as “prevents MTX from decreasing NS-398-induced foam cell formation”. Besides, the “foam cells after preincubation with A2A antagonist prior to MTX treatment” value in the data set with THP-1 macrophages (acetylated LDL-treated THP-1 macrophages, ZM-241385 then MTX) was determined as 62.1±1.5%.

With `COC(=O)N1CCC(CC#Cc2nc(N)c3ncn([C@@H]4O[C@H](C(=O)NC5CC5)[C@@H](O)[C@H]4O)c3n2)CC1` [ATL313], in data set [4], the “effect on ABCA1 message” value is “increases 27-OHase as shown in FIG. 3b and ABCA1 mRNA and protein”. In addition, the “effect on 27-OHase message” value in data set [1] is “increases 27-OHase message”.

For `CCNC(=O)[C@H]1O[C@@H](n2cnc3c(N)nc(NCCc4ccc(CCC(=O)O)cc4)nc32)[C@H](O)[C@@H]1O` [CGS-21680, 2-(4-(2-carboxyethyl)phenethylamino)-5′-N-ethylcarboxamidoadenosine], the terminal half-life in data set [6] is 19 ± 4 min. Further, in data set [4] (setting [10]), the “increase in ABCA1 mRNA on addition of CGS-21680 to NS-398-treated THP-1 cells” value amounted to 141%. Further, the “increase in 27-OHase message” value in data set [1] is on record as no more than 1.8 fold. In addition, in data set [1] (setting [10]), the “increase in 27-OHase mRNA on addition of CGS-21680 to NS-398-treated THP-1 cells” value is recorded as 184%. In data set [7], the “increase in 27-OHase mRNA expression” value worked out at 47±6.2%. For the same compound, the “effect on 27-OHase protein” value in data set [5] is recorded as “this decrease is reversed by the addition of the adenosine A2A agonist CGS-21680”.

For the compound `Nc1nc(OCCc2ccc(Cl)cc2)nc2c1ncn2[C@@H]1O[C@H](CO)[C@@H](O)[C@H]1O` [MRE-0094], the “increase in ABCA1 mRNA expression” value in data set [4] (THP-1 cells) worked out at 1.8 fold. Further, in data set [1], the “increase in 27-OHase message” value was found to be 2 fold.

Regarding `CS(=O)(=O)Nc1ccc([N+](=O)[O-])cc1OC1CCCCC1` [NS-398], the “ABCA1 mRNA, % of control” value in data set [4] (THP-1 cells, NS-398 50 μM, CGS-21680 10 μM, 18 hrs, untreated = 100%, n=3) was 71.1±3.9% and 60.49±4.42%. The “effect on 27-OHase message” value in data set [1] is listed as “dramatically reduced cholesterol 27-OHase message”. Also, in data set [1] (NS-398 50 μM, CGS-21680 10 μM), the “27-OHase mRNA, % of control” value was 71.1±4.3% and 58.9±2.3% and 62.4±2.2%. Further, in the data set on THP-1 macrophages (THP-1 macrophages, NS-398 (10 μM, 18 hours), acetylated LDL, control 20.1±3.4%), the foam cell transformation is 42.7±6.6%. The same compound returned a foam cells in the data set on THP-1 macrophages (setting [9]) of 72.7±4.9%. Moreover, the “effect on 27-OHase protein” value in data set [5] was 27-OHase protein expression decreased.
